The text below walks through data of patent US20070282004A1, “Use of a Cyclopentenone Prostaglandin for Delaying for the Onset and/or Preventing the Continuation of Labour” (Imperial College Innovations Limited, priority 2003, published 2007).

For one test, the system named is PPARα. The conditions noted are these: Forman et al., 1995; cited from earlier work.
For a further test, the system named is phospho-p65. Description: Mouse model of preterm labour (LPS): placental phospho-p65 by western immunoblot. Format: in vivo. The conditions noted are these: gestation day 16 mice, 6 hours after intrauterine 250 μg LPS + 15d-PGJ2, p<0.05. The method, then:
Relative concentrations of phospho-p65 in placental homogenates collected from gestation day 16 mice 6 hours after intrauterine injection of 250 μg LPS+vehicle or 250 μg LPS+[…] 15d-PGJ2. * denotes statistically significant difference (t-test (p<0.05)).
(§1) Surgery was performed on timed pregnant MF1 mice at day 16 of gestation. After deep maternal anaesthesia was attained, a minilaparotomy was performed in the lower abdomen. The uterine horns were exposed through the incision and preterm labour was induced by the intrauterine injection of 250 μg lipopolysaccharide (LPS, Sigma) into the gravid horn. This was immediately followed by injection of 4 μg […] (Cayman), or an equal volume of vehicle (methyl acetate), at the same site. The uterus was then returned to the abdomen and the fascia and skin were closed with continuous vicryl sutures.
(§2) Mice were sacrificed 6 hours after injection of LPS±15d-PGJ2. […]
(§3) Homogenate levels of Interlekin-1β (IL-1β) and tumour necrosis factor α (TNFα) were determined in placental lysates by ELISA (R and D systems) according to manufacturers instructions. Total protein concentrations were determined for each homogenate and IL-1β and TNFα levels were expressed as pg/mg total protein. […] Phosphorylated p65 (phospho-p65) was detected by western immunoblotting using a specific antibody (Santa Cruz) and quantified by densitometric analysis.

A further test has as its system IL-1β. In words: Mouse model of preterm labour (LPS): placental IL-1β by ELISA. It counts as in vivo. To be noted: gestation day 16 mice, 6 hours after intrauterine 250 μg LPS + 4 μg 15d-PGJ2, p<0.05. The method, then:
Concentrations of IL-1β in placental homogenates collected from gestation day 16 mice 6 hours after intrauterine injection of 250 μg LPS+vehicle or 250 μg LPS+4 μg 15d-PGJ2. * denotes statistically significant difference (t-test (p<0.05)).
as §1, §2, §3

The test system of test [1] is NF-κB. In words: Western immunoblot of p65, p50, IκB in amnion cell extracts. To be noted: L−, L+ amnion cells; for IL-1β-induced p65 nuclear translocation: treated 2 h, IL-1β 15 min. It counts as cell-based, human. The method, then: Western immunoblots of nuclear or cytosolic protein extracts from (A) myometrial cells, (B) L− amnion cells, and (C) L+ amnion cells treated with 15dPGJ2 or vehicle for 2 h±IL-1β stimulation (15 min). Blots probed with antibodies against p65, p50 or IκBα.
(§4) Placentae were obtained from patients at term either at elective Caesarean section prior to labour (L−) or following spontaneous labour onset and vaginal delivery (L+). Amnion cells were prepared as described in Bennett et al., (1989). Briefly, the amnion was separated from the placenta, washed 3× in PBS, cut into strips, and incubated in 0.5 mM EDTA in PBS for 15 min. The strips were washed in PBS 2× and digested with 2.5 mg/ml dispase in serum-free DMEM for 35 min at 37° C. The amnion was then shaken vigorously in DMEM, 10% FCS to dissociate the cells, the remaining strips discarded, and the cell suspension pelleted at 175 g for 10 min and cultured in DMEM, 10% FCS (Sigma), 1% L-glutamine, 1% penicillin-streptomycin.
Nuclear and cytosolic protein extracts were obtained from cultured amnion cells as described by Schreiber et al (1989). For nuclear/cytosolic fractionation, confluent cell monolayers were scraped and lysed using a buffer containing 10 mM HEPES, 10 mM KCl, 0.1 mM EDTA, 0.1 mM EGTA, 2 mM DTT, 1% (v/v) NP-40 and complete protease inhibitor tablets (CPIs, Roche), diluted to manufacturer's instructions. Cell lysates were incubated on ice for 10 min and NP-40 added to a final concentration of 1% (v/v). Lysates were vortexed for 10 secs and centrifuged for 30 secs at 4° C., 12000 g. The supernatants were retained as the cytosolic protein extracts. The pellets were resuspended in buffer containing 10 mM HEPES, 10 mM KCl, 0.1 mM EDTA, 0.1 mM EGTA, 2 mM DTT, 400 mM NaCl, 1% NP-40 (v/v) and CPIs. Samples were shaken vigorously for 15 min in an ice bath. The nuclear protein extracts were obtained in the supernatant following a 5 min centrifugation at 4° C., 12000 g.
Protein samples (20-70 μg) were mixed with Laemmli sample buffer (1:1) containing β-mercaptoethanol (5%), and boiled for 5 min. Proteins were then separated by SDS-PAGE (12-14% gels) and transferred onto PVDF membrane (Amersham Pharmacia Biotech). The membranes were blocked overnight in 5% non-fat milk prepared in PBS-T buffer, at 4° C. The blots were incubated with the primary antibody in 1% non-fat milk in PBS-T buffer for 1 h, and washed three times (10 min each) in PBS-T with vigorous shaking. The blots were then incubated with HRP-conjugated secondary antibody (diluted 1:2000 in 1% non-fat milk in PBS-T buffer) for 1 h and washed three times (10 min each) in PBS-T. Signal detection was achieved using enhanced chemi-luminescence (ECL plus system, Amersham Pharmacia Biotech) according to manufacturer's instructions.
30-50 μg protein extracts were subjected to SDS-PAGE and Western immuno-blotting. Secondary antibodies were IgG-HRP and ECL Plus detection kit (Amersham Pharmacia Biotech, Amersham Place, Little Chalfont, Bucks, HP7 9NA) was used for visualisation.

For test [2], the system named is NF-κB. Description: NF-κB-dependent luciferase reporter (κB.BG.Luc) in amnion cells. It counts as cell-based, human. The conditions noted are these: L− or L+ amnion cells, treated 2 h, IL-1β 1 ng/ml 6 h. The method, then: . Values are normalised for b-gal reporter activity.
as §4
pGL3.6κB.BG.luc was the reporter construct used to assess NF-κB-mediated transcription, while the mutant pGL3.6κBmut.luc and empty pGL3.BG.luc were used as controls (Schwarzer et al., 1998).
pGL3.6κB.BG.luc: a NF-κB-dependent reporter construct with 6 copies of the NF-κB binding site. It contains two tandem repeats of the sequence 5′-GGG GAC TTT C CC TGGGGACTTTCCCTGGGGACTTTCCC-3′, which contains three copies of the decameric NF-κB binding site (underlined) upstream of a minimal β-globin promoter driving a luciferase gene.
Cells were co-transfected with the renilla vector pRL-CMV or β-galactosidase vector pCH110 as internal controls for transfection efficiencies.

Another test relates to TNFα. In words: Mouse model of preterm labour (LPS): placental TNFα by ELISA. Format: in vivo. To be noted: gestation day 16 mice, 6 hours after intrauterine LPS + 15d-PGJ2 vs LPS + vehicle. The method, then:
as §1
Mice were sacrificed 6 hours after injection of LPS±15d-PGJ2. Placentae were washed in phosphate buffered saline (PBS), flash frozen in liquid nitrogen and stored at −80° C. until further processing. Fetuses were washed in PBS, then immediately fixed in 4% parafornaldellyde for 24 h and then stored in 70% ethanol until further processing. […]
as §3

For the compound `CCCCCC=CC=C1C(=O)C=C[C@@H]1CC=CCCCC(=O)O` [15d-PGJ2, 15-deoxy-Δ^12,14prostaglandin J2], the “Transactivation of PPAR-α” value with PPARα is recorded as “more weakly than PPAR-γ”. Besides, the “phospho-p65 levels lower in proximal placentae vs LPS+vehicle” value with phospho-p65 was “approximately 35%”. Besides, the “Levels of IL-1β lower in proximal placentae vs LPS+vehicle” value in the test on IL-1β is “approximately 40%”. In the test on NF-κB [1], the “IL-1β-induced IκBα degradation” value is on record as “inhibition”, the “IL-1β-induced IκBβ degradation” value is recorded as “inhibition”, the “IL-1β-induced p50 phosphorylation” value is listed as “inhibition” and the “IL-1β-induced p65 nuclear translocation” value is “inhibited”. Further, the “IL-1β-induced p65 nuclear translocation” value in the test on NF-κB [1] (listed as 15dPGJ2) is recorded as “inhibition”. Further, the “IL-1β-induced NF-κB transcriptional activity (κB.BG.Luc reporter)” value in the test with NF-κB [2] is “inhibited”. Moreover, in the test on TNFα, the “TNFα levels in placentae according to drug treatment” value is given as “not significantly altered”.

With `CCCCC[C@H](O)/C=C/[C@H]1C=CC(=O)[C@@H]1CCCCCCC(=O)O` [PGA1, prostaglandin A1], the “IL-1β-induced NF-κB transcriptional activity (κB.BG.Luc reporter)” value with NF-κB [2] is reported as “inhibited”.
